Experimental data published in US6083941A, “Inhibition of NMDA receptor activity by pregnenolone sulfate derivatives” (Trustees of Boston University, priority 1998, dated 2000).
“And” between values parts separate entries of the source, which are not always exact repeats. Equal entries are not always repeated. Structures can show the parent of a compound that is named as a salt.

Assays:
[1] = test system: formalin pain in the mouse; test: Formalin paw lick analgesic test; assay type: in vivo; conditions: mice, i.p., 15 mg/kg
Protocol: Male CD-1 mice (Charles River laboratories, Wilmington, Mass.) weighing 20-25 g were used for the formalin test. Mice were injected intraperitoneally with the test compound dissolved in DMSO or with vehicle. Five minutes later 20 μl of 1% formalin was injected into the hind paw of each mouse. The time spent licking the injected paw was monitored for 25 minutes. The early phase of response was between 0-5 minutes and the late phase response was defined as the response between 5-25 minutes.

[2] = test system: focal cerebral ischemia (MCA occlusion) in rats; test: Middle cerebral artery occlusion cerebral ischemia test; assay type: in vivo; conditions: for cortical infarct volume: treatment delayed until 30 min. after initiation of ischemia
Protocol: Male Wistar rats (200-250 g) were used. Anesthesia was induced with 3% halothane in 70% nitrogen balanced with oxygen. Rats were intubated and artificially ventilated with 2% halothane in a mixture of 30% oxygen and 70% nitrogen. Body temperature was maintained at 37.5° C. during surgery by means of a warming pad with a rectal probe connected to a feedback control unit. Both common carotid arteries (CCA) were isolated, and a loose silk ligature was placed around each artery. A vertical skin incision was made between the left orbit and the auditory canal. Under constant saline irrigation the posterior part of the zygoma was removed and a small opening (2.0/2.5 mm) drilled dorso-rostrally to the foramen ovale. The dura was opened with a microsurgical hook and the brain gently retracted with a small spatula to expose the bifurcation of the internal carotid artery and middle cerebral artery. After permanent ligation of the ipsilateral CCA, the middle cerebral artery (MCA) was coagulated from its origin to the olfactory tract. The contralateral CCA was occluded for a period of 2 hours. A bolus intravenous injection (1 ml) of test compound dissolved in 5% DMSO, 10% 2-hydroxy propyl-β-cyclodextrin in 100 mM sodium phosphate buffer, pH 7.4, was given either immediately after MCA occlusion or 30 minutes after MCA occlusion. An intravenous infusion of the test drug in the same vehicle was initiated immediately after the bolus injection. Twenty-two hours after MCA occlusion rats were euthanized, and the brains were sectioned into 2 mm slices and stained with tetrazoliumred (2,3,5-triphenyl tetrazolium chloride). Areas of brain damage were assessed using an image analyzer with the NIH Image program, and the volumes of cortical and subcortical infarction were estimated by integration of areas in serial.
Pregnanolone hemisuccinate produced significant neuroprotection in the MCAO cerebral ischemia model. […] Focal cerebral ischemia was induced in the left hemisphere of male rats by proximal coagulation of the middle cerebral artery. In addition, the ipsilateral common carotid artery was permanently occluded and the contralateral common carotid artery was occluded for 2 h. Five minutes after initiation of ischemia, rats were injected with an i.v. loading dose of 6.9 mg/kg 5β3αHS, followed by i.v. infusion of 5β3αHS at 6.9 mg/kg/h. […] Control rats were treated with vehicle. Infusion of 5β3αHS was continued for an additional 20 h, at which time the rats were sacrificed, and their brains were sliced and stained with the vital stain 2,3,5 triphenyl tetrazolium Cl.

[3] = test system: AMPA receptors; test: Whole cell patch clamp, AMPA-induced current in cultured chick spinal cord neurons; assay type: cell-based; conditions: 100 μM steroid; -70 mV; sulfate
Protocol: Cultures of dissociated spinal cord neurons were prepared as previously described (Farb, D. H., et al., J. Cell Biol., 80:651-661 (1979)). Briefly, the dissociated cells from 7-day chick embryos were plated on collagen-coated 35-mm tissue culture dishes in Eagle's minimum essential medium supplemented with 2.4 mM glutamine, 10% (v/v) heat-inactivated horse serum, 5% (v/v) chick embryo extract and antibiotics. Cultures were maintained in a humidified atmosphere of 5% CO2, 95% air at 37°. Cytarabine (1 μM) was added to the culture medium after 36 hr. of the initial plating to inhibit the proliferation of non-neuronal cells. One day later, this medium was replaced with a similar medium supplemented with 20.5 mM glucose, 19 mM KCl, and 2.5% chick embryo extract. Fresh medium was added twice weekly. Cultured neurons were used in experiments within 2-4 weeks after plating.
Experiments were carried out in 35-mm tissue culture dishes on the stage of an inverted phase contrast microscope. Whole cell currents were recorded by the whole cell variant of the patch clamp technique (Hamill, O. P., et al., Pfagers Arch. 891:85-100 (1981)). Patch electrodes had tip openings of about […] and resistances of 3-8 M.OMEGA. using an intracellular solution comprised of the following (in mM): 140 CsCl, 11 EGTA, and 10 HEPES (pH adjusted to 7.2 with CsOH). […]

[4] = i.v. 6.9 mg/kg loading dose then 6.9 mg/kg/h, started 5 min. after onset of ischemia, versus vehicle

Row | SMILES | early phase response, formalin paw lick ([1]; 0-5 minutes) | late phase response, formalin paw lick ([1]; 5-25 minutes) | sedation ([2]; i.v. 6.9 mg/kg loading dose then 6.9 mg/kg/h) | reduction in cortical infarct volume [2, 4] [%] | reduction in subcortical infarct volume [2, 4] [%] | cortical infarct volume [2] | cortical infarct volume ([2]; listed as Pregnanolone hemisuccinate) | infarction volumes of the cortical and subcortical brain regions ([2]; treatment immediately after cerebral ischemia) | inhibition of the 25 μM AMPA-induced current [3]
1 | CC(=O)[C@H]1CC[C@H]2[C@@H]3CC[C@@H]4C[C@H](OC(=O)CCC(=O)O)CC[C@]4(C)[C@H]3CC[C@]12C [5β3αHS, 3α-hydroxy-5β-pregnan-20-one hemisuccinate] | no effect on the early response | effective in blocking the late phase response | Little or no sedation | 47±10 | 26±6 | significantly reduced | significantly decreased | significantly decreased | –
2 | CC(=O)[C@H]1CC[C@H]2[C@@H]3CC[C@@H]4C[C@H](OS(=O)(=O)O)CC[C@]4(C)[C@H]3CC[C@]12C [5β3αS, 3α-hydroxy-5β-pregnan-20-one sulfate] | – | – | – | – | – | – | – | – | 29% and 29.0±3.1%
